≈ marks a conversion by molar mass, not a printed value.
Legend:
[1] = system: Staphylococcus epidermidis ATCC 12228; test: MIC, antibacterial activity (agar culture); type: cell-based; settings: ATCC12228, 37° C., 18-20 hours, Mueller-Hinton agar, read-out: Minimum inhibitory concentration MIC
[2] = system: Piricularia oryzae IAM 5016; test: microbe, parasite or virus in culture; type: cell-based; settings: 120 h; read-out: Minimum inhibitory concentration MIC
[3] = system: Ehrlich carcinoma; test: Antitumor effect, survival of tumor-inoculated mice; type: in vivo, ICR mice; settings: intraperitoneally, once a day for 10 days
[4] = physchem; type: physicochemical; settings: 10 μg/ml in dimethylsulfoxide/physiological saline
Procedure: The stability of some Fredericamycin A derivatives and Fredericamycin A in their aqueous solutions were tested in accordance with the following procedures.
The test compounds were individually dissolved in dimethylsulfoxide, followed by dilution of the resulting solutions with physiological saline to adjust the final concentrations of the test compounds and Fredericamycin to 10 μg/ml respectively. The thus-prepared test solutions were then subjected to high performance liquid chromatography after predetermined time intervals to measure the percentage remainders of the test compounds.

| SMILES | MIC [1] | MIC [2] | percentage of mean survival time of test and control animals ([3]; 0.5 mg/kg/day) | percentage of mean survival time of test and control animals ([3]; 1.0 mg/kg/day) | percentage of mean survival time of test and control animals ([3]; 2.0 mg/kg/day) | Percentage remainder ([4]; 0 hr.) | remaining at 3 h ([4]; 3 hrs., read-out: Percentage remainder) | remaining at 6 h ([4]; 6 hrs., read-out: Percentage remainder) | remaining at 24 h ([4]; 24 hrs., read-out: Percentage remainder) | remaining at 48 h ([4]; 48 hrs., read-out: Percentage remainder) | remaining at 72 h ([4]; 72 hrs., read-out: Percentage remainder) |
| --- | --- | --- | --- | --- | --- | --- | --- | --- | --- | --- | --- |
| C/C=C/C=C/c1cc2cc3c(c(O)c2c(=O)[nH]1)C1(CC3)C(=O)c2c(OC(=O)CCCCC)c3c(c(OC(=O)CCCCC)c2C1=O)C(=O)C(OC)=CC3=O (stereo not shown) [Compound 5] | 25 µg/mL (≈ 34 µM) | 0.39 µg/mL (≈ 0.53 µM) | over 247% | over 229% | over 256% | 100% | 93.2% | 88% | 67.6% | 57.8% | 47.9% |
| C/C=C/C=C/c1cc2cc3c(c(O)c2c(=O)[nH]1)C1(CC3)C(=O)c2c(OC(=O)CCCCCCCCCCC)c3c(c(OC(=O)CCCCCCCCCCC)c2C1=O)C(=O)C(OC)=CC3=O (stereo not shown) [Compound 7] | 25 µg/mL (≈ 27.7 µM) | 1.56 µg/mL (≈ 1.73 µM) | 104% | 96% | 194% | – | – | – | – | – | – |

Source: patent US4584377A, “Novel Fredericamycin A derivatives” (SS Pharmaceutical Co., Ltd., priority 1983, dated 1986)
